One series deals with BauB (Acinetobacter baumannii, UniProt Q76HK0). The series can be described thus: BauB binding by intrinsic Trp fluorescence quenching.
The conditions of series [1]: Fe binding in CAS assay; reported previously; cited from earlier work.

SMILES strings stand for the structures.

What is called Kd is the free concentration of one partner at which half of the binding sites on the other are occupied at equilibrium, for simple one-to-one binding. Read a low Kd as higher affinity. For `C[C@@H]1ON(CCc2c[nH]cn2)C(=O)[C@H]1NC(=O)c1cccc(O)c1O` [compound 1, acinetobactin], at BauB, the Kd came to 300 ± 100 nM. Further, the “CAS (+/-)” value in series [1] is reported as “+”.
